Data on 50 compounds can be found in ChEMBL document CHEMBL1201862, “PubChem BioAssay data set” (2004).

Common to all, as to assay: NCI-60 cell line screen, 48 h
Assay [1] concerns BT-549.
Assay [2] deals with DMS-114.
Assay [3] has as its system HOP-18.
In assay [4] the test system is LXFL 529.
Assay [5] has as its system M19-MEL.
Assay [6] has as its system DMS-273.
The subject of assay [7] is KM-20L2.

SMILES strings stand for the structures. Structures can show the parent of a compound that is named as a salt.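 Briefly, cells in 96-well plates were exposed to five compound concentrations for 48 h, and endpoints were estimated by linear interpolation. The concentration for 50% growth inhibition is given as GI50.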 The source made the active and inactive calls. No stated cut-off is given here; in the data, active = GI50 up to about 1.1 µM and inactive = higher.

With `CC1=CSC(O)(c2ccc(Cl)cc2)c2noc(=O)n21` (stereo unspecified), the GI50 in assay [1] is > 100 µM (inactive).

Take `O=C1Nc2ccc(Br)cc2C1=Nc1cccnc1`: the GI50 in assay [1] is 17.1 µM (inactive).

For `O=[N+]([O-])/C(C(Cl)=C(Cl)Cl)=C(/Sc1ccccc1)N1CCCCC1`, in assay [1], the GI50 was > 100 µM (inactive).

In the case of `CCc1ncc(CO)n1Cc1cccc2ccccc12`, in assay [1], the GI50 was > 100 µM (inactive).

For the compound `Oc1ccc(-c2cc(-c3cc(-c4ccc(O)cc4)no3)on2)cc1`, in assay [1], the GI50 was 17.8 µM (inactive).

For `CN(CCN)[C@H](CSSC[C@@H](c1ccccc1O)N(C)CCN)c1ccccc1O`, the GI50 in assay [1] is 9.95 µM (inactive).

Regarding `Cc1ccc2c(c1)C(C1Cc3cccc(C)c3C1=O)OC2=O` (stereo unspecified), the GI50 in assay [1] is > 100 µM (inactive).

For `NC(=S)N/N=C/c1cn(CCCl)c2ccccc12`, the GI50 was 21.9 µM (inactive) in assay [2], 61.9 µM (inactive) in assay [3], 39.7 µM (inactive) in assay [4] and 52.1 µM (inactive) in assay [5].

In the case of `COc1cccc(CC(=O)N2CCN(CCCc3ccccc3)CC2)c1`, the GI50 in assay [1] is 33.8 µM (inactive).

For the compound `O=C(O)/C(O)=C\C(=O)c1ccc(Br)cc1`, the GI50 in assay [1] was > 100 µM (inactive).

With `CCN(CC)/[N+]([O-])=N/OCOC`, the GI50 in assay [1] was > 100 µM (inactive).

Regarding `CN(C)c1ccc(/N=N\c2cccc3ncccc23)cc1`, the GI50 in assay [1] is 65.5 µM (inactive).

Regarding `CCN1C(=O)CS/C1=N\NC(=O)CSc1nc2ccccc2c(=O)n1CC`, in assay [1], the GI50 is > 100 µM (inactive).

With `CC1=CC[C@@]2(C)[C@@H]([C@@H]1C)[C@H]1CC[C@@H]3[C@@]4(C)CC[C@H](O)C(C)(C)[C@@H]4CC[C@@]3(C)[C@]1(C)C[C@@H]2O`, the GI50 in assay [1] was 29.1 µM (inactive).

On to `CCOC(=O)C1=C(C)NC(C)=C(C(=O)OCC)C1c1ccc(C)cc1`, for which, in assay [1], the GI50 is 52.8 µM (inactive).

On to `COc1cc(NS(C)(=O)=O)ccc1Nc1c2ccccc2nc2c1[nH]c1ccc(NC3OC(CO)C(O)C(O)C3O)cc12` (stereo unspecified), for which the GI50 in assay [1] was 1.3 µM (inactive); in assay [2], < 0.01 µM (active); in assay [6], < 0.01 µM (active); in assay [3], 0.048 µM (active); in assay [7] it was 0.163 µM (active); in assay [4], 0.9 µM (active). Also, the GI50 in assay [5] was 0.165 µM (active).

As for `S=C1Cc2c(-c3ccccc3)cc(-c3ccc(Cl)cc3)nc2-c2ccccc2N1`, the GI50 in assay [1] was 5.56 µM (inactive).

Take `CC1=NN(C(=O)CC(=O)Nc2cccc(Cl)c2)C(=O)C1/N=N/c1ccc(C(=O)O)cc1` (stereo unspecified): the GI50 in assay [1] was > 100 µM (inactive).

Consider `COC1(OC)c2occc2C(=N)c2ccc(=O)oc21`, for which the GI50 in assay [1] is > 100 µM (inactive).

On to `CC(=O)OCC1OC(NC(=S)CCSc2nc3ccccc3c(=O)n2-c2ccccc2)C(OC(C)=O)C(OC(C)=O)C1OC(C)=O` (stereo unspecified), for which, in assay [1], the GI50 was 31.4 µM (inactive).

As to `Cc1ccc(N/C(Sc2ccccc2)=C(/C(Cl)=C(Cl)Cl)[N+](=O)[O-])c(C)c1`, in assay [1], the GI50 is 15.5 µM (inactive).

With `Cc1ccc(S(=O)(=O)N2CCN(CCO)CCN(S(=O)(=O)c3ccc(C)cc3)CCN(CCO)CC2)cc1`, in assay [1], the GI50 was 60.8 µM (inactive).

`O=c1c2c3ccccc3[nH]c2c2cccc3c2n1CCC3`: the GI50 in assay [1] is 29.6 µM (inactive).

Take `CC(=O)O[C@H]1CC[C@@]2(C)C(=CC[C@H]3[C@@H]4C[C@H](N5CCCC5)[C@H](OC(C)=O)[C@@]4(C)CC[C@@H]32)C1`: in assay [1], the GI50 is > 100 µM (inactive).

On to `Cn1c(=O)n2n(c1=O)[C@@H](c1ccccc1)[C@H]2c1ccccc1`, for which the GI50 in assay [1] was > 100 µM (inactive).

Regarding `Nc1nc(Cl)cc(NCC2(CO)CCC(CCc3ccccc3)C2)n1` (stereo unspecified), the GI50 in assay [1] is 14 µM (inactive).

For the compound `Cc1cc(=O)n(-c2ccccc2)c(=O)o1`, the GI50 in assay [2], in assay [6], in assay [3], in assay [7], in assay [4] and in assay [5] was > 100 µM (inactive) throughout.

`Cc1cccc(/C=N/NC(=S)Nc2ccccc2)n1`: the GI50 in assay [1] is 7.53 µM (inactive).

For the compound `O=C(/C=C\Nc1ccccc1O)C(Cl)(Cl)Cl`, in assay [1], the GI50 was 52.2 µM (inactive).

For `COC(=O)C1=C(C(=O)OC)C2C(C)=CC(C)=CN2C(C#N)=C(SC)S1` (stereo unspecified), the GI50 is 22.6 µM (inactive) in assay [2]; 31.8 µM (inactive) in assay [6]; 32.7 µM (inactive) in assay [7]; 16.9 µM (inactive) in assay [4]; 17.7 µM (inactive) in assay [5].

As for `O=C1OC(c2ccccc2)=N/C1=C\c1cccc(F)c1`, in assay [1], the GI50 is 32.4 µM (inactive).

As for `O=C(c1ccco1)N(C(=O)N1CCCCC1)c1ccccc1`, the GI50 in assay [1] was > 100 µM (inactive).

For `CC(C)(C)OC(=O)N1CCCC1=O`, in assay [1], the GI50 is > 10 µM (inactive).

On to `CCOP(=O)(OCC)/C(C#N)=C/c1cnc[nH]1`, for which the GI50 in assay [1] is > 100 µM (inactive).

Regarding `Cc1ccc(-c2c3c(n(C4OC(CO)C(O)C(O)C4O)c(=S)c2C#N)CC(C)(C)CC3=O)cc1` (stereo unspecified), in assay [1], the GI50 is 50 µM (inactive).

As for `O=C(O)CCCC(=O)Nn1c(Cc2ccc(Cl)cc2)n[nH]c1=O`, the GI50 in assay [1] is > 100 µM (inactive).

Regarding `CC1=CC(C)C(C)N(CCNS(=O)(=O)c2ccc(C)cc2)c2ccccc21` (stereo unspecified), the GI50 in assay [1] was 17.1 µM (inactive).

Turning to `Cc1cc(=O)oc2cc(OC(=O)Nc3ccc(Cl)c(Cl)c3)ccc12`, in assay [1], the GI50 was 17.8 µM (inactive).

`CCOC(=O)/C(C#N)=C1/C(O)=C(C(=O)OC)C(C(=O)OC)=C1C(=O)OC.c1ccncc1`: the GI50 in assay [6], in assay [7], in assay [4] and in assay [5] was > 100 µM (inactive) in each case.

For the compound `COC(=O)c1cc(C)ccc1C1CN=NC12Cc1ccc(C)cc1C2=O` (stereo unspecified), the GI50 in assay [1] is 30.1 µM (inactive).

`Cn1c([C@H](C#N)C(=O)c2cc(O)ccc2[N+](=O)[O-])nc2ccccc21`: in assay [1], the GI50 was 16 µM (inactive).

Consider `COC(=O)[C@@H]1C[C@@H](O)CN1C(=O)c1ccc([N+](=O)[O-])cc1[N+](=O)[O-]`, for which, in assay [1], the GI50 was > 100 µM (inactive).

Regarding `O=c1ccn([C@@H]2C[C@@H]2CO)c(=O)[nH]1`, the GI50 in assay [1] was > 100 µM (inactive).

Consider `Cc1ccc(CNNC(=O)c2cc[n+]([BH2-]C#N)cc2)cc1`, for which the GI50 in assay [1] was > 100 µM (inactive).

In the case of `Oc1cccc2ccc(SSc3ccc4cccc(O)c4n3)nc12`, the GI50 in assay [1] is 21.1 µM (inactive).

Take `O=C1c2ccccc2-n2c1nc1ccc([N+](=O)[O-])cc1c2=O`: the GI50 in assay [1] was > 100 µM (inactive).

For the compound `COC(=O)[C@@H]1COC(C(C)(C)C)N1C(=O)C(c1ccccc1)c1ccccc1` (stereo partly specified), in assay [1], the GI50 was > 100 µM (inactive).

`Cc1ccc(-c2cc(O)c3cc4c(cc3n2)OCO4)cc1`: the GI50 is 2.48 µM (inactive) in assay [2]; 1.35 µM (inactive) in assay [6]; 3.07 µM (inactive) in assay [3]; 1.67 µM (inactive) in assay [7]; 0.748 µM (active) in assay [4]; 0.805 µM (active) in assay [5].

`COc1cc(CCc2cccnc2)cc(OC)c1OC`: the GI50 in assay [2] is 77.4 µM (inactive); in assay [6], > 100 µM (inactive); in assay [3] it was > 100 µM (inactive); in assay [7] it was > 100 µM (inactive); in assay [4], > 100 µM (inactive); in assay [5], > 100 µM (inactive).

As for `CC[C@]12CN3CCc4c([nH]c5ccccc45)[C@@](C(=O)OC)(c4cc5c(cc4OC)N(C)[C@H]4[C@@](O)(C(=O)OC)[C@H](OC(C)=O)[C@]6(CC)C=CCN7CC[C@]54[C@@H]76)CC(C3)[C@H]1O2` (stereo partly specified) [VINLEUROSINE SULFATE], in assay [1], the GI50 is 10.2 µM (inactive).
